Measurements reported in ChEMBL document CHEMBL3352079, “Pyrimidine-based tricyclic molecules as potent and orally efficacious inhibitors of wee1 kinase” (ACS Med Chem Lett, 2015).
pEC50, pKi: −log10 of the molar value. Activity calls are given as the source filed them. No cut-off for these calls is given here.

How the values were obtained:
Wee1-like protein kinase [1] = target: T1, Wee1-like protein kinase (Homo sapiens, UniProt P30291); assay: Inhibition of human Weel1 in human NCI-H1299 cells assessed as phosphorylation of Cdk1 after overnight incubation by ELISA PD assay; format: cell-based
T1 sequence (P30291 whole entry): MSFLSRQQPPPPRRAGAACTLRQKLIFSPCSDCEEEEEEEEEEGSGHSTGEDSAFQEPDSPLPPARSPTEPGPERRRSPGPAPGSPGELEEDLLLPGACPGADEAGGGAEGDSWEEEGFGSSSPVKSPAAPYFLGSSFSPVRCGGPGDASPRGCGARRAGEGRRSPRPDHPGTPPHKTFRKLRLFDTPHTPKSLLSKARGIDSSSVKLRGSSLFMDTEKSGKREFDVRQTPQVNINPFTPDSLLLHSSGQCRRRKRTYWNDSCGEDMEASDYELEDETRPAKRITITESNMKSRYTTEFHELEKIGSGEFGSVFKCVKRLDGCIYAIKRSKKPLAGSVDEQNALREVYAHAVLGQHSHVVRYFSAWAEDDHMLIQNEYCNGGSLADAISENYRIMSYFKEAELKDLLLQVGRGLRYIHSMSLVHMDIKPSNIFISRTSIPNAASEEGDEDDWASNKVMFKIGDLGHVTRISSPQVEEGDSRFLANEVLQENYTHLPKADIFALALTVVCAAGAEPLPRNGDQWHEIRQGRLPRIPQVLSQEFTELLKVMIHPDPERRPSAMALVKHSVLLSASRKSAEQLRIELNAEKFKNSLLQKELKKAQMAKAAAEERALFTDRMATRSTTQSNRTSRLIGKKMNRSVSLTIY

Wee1-like protein kinase [2] = target: T1, Wee1-like protein kinase; assay: Inhibition of GST-tagged human Wee1
NCI-H1299 [3] = assay: Cytotoxicity against human NCI-H1299 cells assessed as cell viability after 72 hrs by CellTiterGlo assay; format: functional, cell-based; conditions: NCI-H1299, 72 h
[4] = Clearance in CD-1 mouse at 3 mg/kg, iv; format: ADME, organism-based; parameters: dose 3 mg/kg, route intravenous; conditions: in vivo
[5] = AUC in CD-1 mouse at 10 mg/kg, po; format: ADME, organism-based; parameters: dose 10 mg/kg, route oral; conditions: plasma
[6] = Oral bioavailability in CD-1 mouse at 10 mg/kg; format: ADME, organism-based; conditions: in vivo
[7] = Half life in CD-1 mouse at 3 mg/kg, iv; format: ADME, organism-based; parameters: dose 3 mg/kg, route intravenous; conditions: in vivo
NCI-H1299 [8] = assay: Antitumor activity against human NCI-H1299 cells xenografted in mouse assessed as tumor growth inhibition at 50 mg/kg, po qd from day 28 to 41 after tumor inoculation in presence of 10 mg/kg irinotecan; format: functional
NCI-H1299 [9] = assay: Antitumor activity against human NCI-H1299 cells xenografted in mouse assessed as tumor growth inhibition at 10 mg/kg, po qd from day 28 to 41 after tumor inoculation; format: functional; conditions: NCI-H1299, 672 h, read-out: TGI
NCI-H1299 [10] = assay: Antitumor activity against human NCI-H1299 cells xenografted in mouse assessed as tumor growth delay at 50 mg/kg, po qd from day 28 to 41 after tumor inoculation in presence of 10 mg/kg irinotecan; format: functional
[11] = Plasma concentration in human NCI-H1299 cells xenografted in mouse at 100 mg/kg, po qd after 10 hrs; format: ADME, organism-based; parameters: dose 100 mg/kg, route oral
Mus musculus = assay: In vivo inhibition of Wee1 in human NCI-H1299 cells xenografted in mouse assessed as pY15 CDK expression at 100 mg/kg, po qd after 6 to 10 hrs; format: functional, organism-based; parameters: dose 100 mg/kg
[12] = Drug uptake in human NCI-H1299 cells xenografted in mouse assessed in tumor at 100 mg/kg, po qd after 10 hrs; format: ADME, organism-based, Neoplasm; parameters: dose 100 mg/kg, route oral; conditions: read-out: Drug uptake
NCI-H1299 [13] = assay: Antitumor activity against human NCI-H1299 cells xenografted in mouse assessed as depletion of pY15 bands at 100 mg/kg, po after 6 hrs; format: functional, organism-based; parameters: dose 100 mg/kg
[14] = Plasma concentration in human NCI-H1299 cells xenografted in mouse at 100 mg/kg, po qd after 6 hrs; format: ADME, organism-based; parameters: dose 100 mg/kg, route oral
NCI-H1299 [15] = assay: Antitumor activity against human NCI-H1299 cells xenografted in mouse assessed as tumor growth inhibition at 50 mg/kg, po qd from day 28 to 41 after tumor inoculation; format: functional; conditions: NCI-H1299, 672 h, read-out: TGI
[16] = Drug uptake in human NCI-H1299 cells xenografted in mouse assessed in tumor at 100 mg/kg, po qd after 6 hrs; format: ADME, organism-based, Neoplasm; parameters: dose 100 mg/kg, route oral; conditions: read-out: Drug uptake
NCI-H1299 [17] = assay: Antitumor activity against human NCI-H1299 cells xenografted in mouse assessed as depletion of pY15 bands at 100 mg/kg, po after 10 hrs; format: functional, organism-based; parameters: dose 100 mg/kg

Compound | pEC50 (Wee1-like protein kinase [1]) | pKi (Wee1-like protein kinase [2]) | pEC50 (NCI-H1299 [3]) | clearance [4] [mL/min/kg] | AUC [5] [µM·h] | bioavailability [6] [%] | half-life [7] [h] | other results
CN1CCCc2ccc(Nc3ncc4c(=O)n(-c5ccccc5Cl)c5nccn5c4n3)cc21 | 5.64 | 8.07 | < 5.00 | – | – | – | – | –
CN1Cc2cc(Nc3ncc4c(=O)n(-c5c(F)cccc5Cl)c5nccn5c4n3)ccc2C2(CC2)C1 | 7.54 | > 9.00 | 6.68 | 18.3 | 12 | 68 | 2.6 | –
CN1CCN(c2ccccc2Nc2ncc3c(=O)n(-c4ccccc4Cl)c4nccn4c3n2)CC1 | – | < 5.50 | – | – | – | – | – | –
CCc1c2c(nc3ccc(OC(=O)N4CCC(N5CCCCC5)CC4)cc13)-c1cc3c(c(=O)n1C2)COC(=O)[C@]3(O)CC [IRINOTECAN] | – | – | – | – | – | – | – | TGI (NCI-H1299 [8]): 83%; inhibition in vivo at 10 mg/kg (NCI-H1299 [9]): 67%
CN1CCC(c2ccc(Nc3ncc4c(=O)n(-c5ccccc5Cl)c5nccn5c4n3)cc2)CC1 | 5.51 | 8.08 | 5.02 | – | – | – | – | –
CN1Cc2cc(Nc3ncc4c(=O)n(-c5ccccc5Cl)c5nccn5c4n3)ccc2C(C)(C)C1 | 7.01 | > 9.00 | 6.26 | 23.3 | 12.3 | 80 | 2.8 | –
CN1Cc2cc(Nc3ncc4c(=O)n(-c5ccccc5Cl)c5nccn5c4n3)ccc2C2(CC2)C1 | 7.00 | 8.92 | 6.16 | 25 | 9.8 | 70 | 2.3 | –
CN1CCc2ccc(Nc3ncc4c(=O)n(-c5ccccc5Cl)c5nccn5c4n3)cc2C1 | 6.66 | 8.80 | 6.11 | 36.7 | 5.2 | 52 | 1.5 | –
CN1CCN(c2cccc(Nc3ncc4c(=O)n(-c5ccccc5Cl)c5nccn5c4n3)c2)CC1 | 5.82 | 8.21 | 5.19 | – | – | – | – | –
CN1CCN(c2ccc(Nc3ncc4c(=O)n(-c5c(F)cccc5Cl)c5nccn5c4n3)cc2)CC1 | – | – | 6.35 | – | – | – | – | –
O=c1c2cnc(Nc3ccc(C4CCCCC4)cc3)nc2n2ccnc2n1-c1ccccc1Cl | 5.00 | 7.06 | < 5.00 | – | – | – | – | –
CN1Cc2cc(Nc3ncc4c(=O)n(-c5c(F)cccc5Cl)c5nccn5c4n3)ccc2C(C)(C)C1 | 7.22 | > 9.00 | 6.51 | 9.17 | 24 | 94 | 2.8 | Activity (NCI-H1299 [10]): 25%; concentration at 10 h [11]: 13.7 µM; TGI (NCI-H1299 [8]): 83%; inhibition (Mus musculus): Active; concentration at 10 h [12]: 53.4 µM; inhibition (NCI-H1299 [13]): Active; concentration at 6 h [14]: 20 µM; inhibition in vivo at 50 mg/kg (NCI-H1299 [15]): 43%; concentration at 6 h [16]: 47.1 µM; inhibition (NCI-H1299 [17]): Active
CC(=O)N1CCN(c2ccc(Nc3ncc4c(=O)n(-c5ccccc5Cl)c5nccn5c4n3)cc2)CC1 | 5.96 | 8.18 | 5.48 | – | – | – | – | –
CN1Cc2cc(Nc3ncc4c(=O)n(-c5c(Cl)cccc5Cl)c5nccn5c4n3)ccc2C(C)(C)C1 | > 7.89 | > 9.00 | 6.64 | 16.2 | 9.8 | 49 | 3.9 | –
O=c1c2cnc(Nc3ccc4c(c3)CCCC4)nc2n2ccnc2n1-c1ccccc1Cl | 5.22 | 7.59 | 5.14 | – | – | – | – | –
CN1CCCc2cc(Nc3ncc4c(=O)n(-c5ccccc5Cl)c5nccn5c4n3)ccc21 | 5.57 | 8.13 | 5.03 | – | – | – | – | –
O=c1c2cnc(Nc3ccccc3)nc2n2ccnc2n1-c1ccccc1Cl | 5.17 | 7.68 | 5.23 | – | – | – | – | –
CN1Cc2cc(Nc3ncc4c(=O)n(-c5c(Cl)cccc5Cl)c5nccn5c4n3)ccc2C2(CC2)C1 | 7.57 | > 9.00 | 6.66 | – | – | – | – | –
O=c1c2cnc(Nc3ccc(N4CCCCC4)cc3)nc2n2ccnc2n1-c1ccccc1Cl | 5.42 | 8.26 | 5.01 | – | – | – | – | –
O=c1c2cnc(NC3CCCCC3)nc2n2ccnc2n1-c1ccccc1Cl | – | < 5.50 | – | – | – | – | – | –
CN1CCN(c2ccc(Nc3ncc4c(=O)n(-c5ccccc5Cl)c5nccn5c4n3)cc2)CC1 | 6.43 | 8.64 | 6.00 | 30 | 8.4 | 72 | 1.9 | –
CC(=O)N1Cc2cc(Nc3ncc4c(=O)n(-c5ccccc5Cl)c5nccn5c4n3)ccc2C2(CC2)C1 | 6.21 | 8.27 | 5.70 | – | – | – | – | –
CN1CCN(c2ccc(Nc3ncc4c(=O)n(-c5c(Cl)cccc5Cl)c5nccn5c4n3)cc2)CC1 | 7.06 | > 9.00 | 6.72 | 33.3 | 6.5 | 55 | 1.7 | –
